In this assay the target is HLA-DQ8. As to the kind of experiment: Competitive in vitro HLA-DQ8 binding assay. Set-up: species or system human. The conditions noted are these: competition with FITC-labelled GAD65 253-265 R255F peptide (10 μM), thrombin-cleaved HLA-DQ8 monomers 0.4 μM, 48 h at 37 °C; one-site competitive binding fit. The protocol: Competitive binding assays were carried out according to previously established procedures[30][67][68]: HLA-DQ8 monomers were kindly provided by R.A.W. from the NIH Tetramer Core Facility (Atlanta, USA). The CLIP peptide of HLA-DQ8 molecules was cleaved off by incubation with thrombin (Novagen) for 2 h (ref. [69]).
Specifically, a FITC-labelled GAD65 253-265^R255F peptide (IAFFKMFPEVKEK) was used as an indicator peptide (10 μM) for the binding reaction together with thrombin-cleaved HLA-DQ8 monomers (0.4 μM) and increasing concentrations of competitor peptides (natural insulin B:9-23, ins.mim.1,2,3,4, MP185-204). The MP185-204 peptide ([…]) was used as a positive DQ8-binding control. The indicator peptide incubated with DQ8 monomers in the absence of competitor peptide was used as positive control. For background analysis the binding reaction was performed without HLA-DQ8 monomers. The binding reaction was incubated for 48 h at 37 °C. Assays were then captured using anti-DQ antibody-coated plates (SPV-L3, Abcam, 15 μg ml^−1). Detection was performed using anti-FITC HRP (Abcam, 1:1,000) antibodies in combination with TMB substrate (BD Biosciences) and subsequent analysis with the Epoch plate reader (Biotech) at 450 and 405 nm. […]

Take “ins.mim.1: novel human insulin-B-chain-10-23 mimetope with 14E, 21G and 22E”: the IC50 worked out at 3.2 µM.
As for “ins.mim.2: insulin-B:10-23 peptide variant with 21G and 22E, previously established”, the half-inhibitory concentration (IC50) came out at 6.3 µM.

A word on the IC50: it is the concentration at which inhibition is half-maximal.
